Experimental data taken from patent US20240166612A1, “ARYLTHIOETHER ACETAMIDE AND RELATED COMPOUNDS AND THEIR USE IN TREATING MEDICAL CONDITIONS” (X-Biotix Therapeutics, Inc., priority 2021, published 2024).
Converted amounts (≈) assume the structure as drawn.

Experiments:
[1] = tested on: Wild-type P. aeruginosa PAO1; test: Broth microdilution MIC, wild-type P. aeruginosa PAO1; type: cell-based; details: Pseudomonas aeruginosa; wild-type P. aeruginosa PAO1, 37° C., 18 h; read-out: PAO1 WT MIC
Experimental: (§1) Exemplary compounds from the above Examples were tested to determine their minimum inhibitory concentration (MIC) for exemplary strains of Escherichia and Pseudomonas bacteria using broth microdilution methods. Assay procedures and results are described below.
(§2) Broth microdilution assays were conducted according to Clinical and Laboratory Standards Institute guidelines (CLSI, M07-A^11: Clinical and Laboratory Standards Institute. Methods for Dilution Antimicrobial Susceptibility Tests for Bacteria that Grow Aerobically; Approved Standard-11th Edition. Wayne, PA: CLSI, 2018). Briefly, bacterial suspensions were adjusted to a density equivalent to a 0.5 McFarland standard and diluted in sterile, cation-adjusted Mueller-Hinton broth (Beckton Dickinson) to yield a final inoculum between 2×10^5 and 8×10^5 colony-forming units (CFU)/mL. An inoculum volume of 98 μL was added to wells containing 2 μL of 2-fold serial dilutions of drug (prepared in DMSO). All inoculated microdilution trays were incubated in ambient air at 37° C. for 18 h. […] Performance of the assay was monitored by the use of laboratory quality-control strains (S. aureus ATCC 29213 and P. aeruginosa ATCC 27853) and levofloxacin, a compound with a defined MIC spectrum, in accordance with CLSI guidelines (CLSI, M100Ed29: Clinical and Laboratory Standards Institute. Performance Standards for Antimicrobial Susceptibility Testing, 29th Edition. Wayne, PA: CLSI, 2018).
(§3) Multiple enterobacteriaceae strains were tested, including both wild-type strains and multi-drug resistance pump deficient mutants. Specific strains tested included the following: • Wild-type P. aeruginosa PAO1, • P. aeruginosa PAO1 ΔmexABoprM—Disabled multi-drug efflux system Δ(MexAB-OprM), • P. aeruginosa PAO397—PAO1Δ(mexAB-oprM) Δ(mexCD-oprJ) Δ(mexEF-oprN) Δ(mexJK) Δ(mexXY) ΔopmH, • P. aeruginosa LESB58—Clinical isolate; colistin-resistant, isolated in the United Kingdom in 1988 from a patient with cystic fibrosis • E. coli JW0452-3 (BW25113 JacrA::kan)—Disabled multi-drug efflux system (AcrAB-TolC).
(§4) Experimental results are provided in Table 11, which provides MIC values for wild-type P. aeruginosa PAO1 (“PAO1 WT MIC”), P. aeruginosa PAO ΔmexABoprM (“PAO1 KO MIC”), P. aeruginosa PAO397 (“PAO397 KO MIC”), P. aeruginosa LESB58 (“LESB58”), and E. coli JW0452-3 (BW25113 JacrA::kan) (“E. coli KO MIC”).

[2] = tested on: P. aeruginosa PAO1 ΔmexABoprM; test: Broth microdilution MIC, P. aeruginosa PAO1 ΔmexABoprM; type: cell-based; details: Pseudomonas aeruginosa, PAO1, 18 h, read-out: PAO1 KO MIC
Experimental: as §1, §2, §3, §4

P. aeruginosa PAO397 = test: Broth microdilution MIC, P. aeruginosa PAO397; type: cell-based; details: Pseudomonas aeruginosa, PAO397, 18 h, read-out: PAO397 KO MIC
Experimental: as §1, §2, §3, §4

P. aeruginosa LESB58 = test: Broth microdilution MIC, P. aeruginosa LESB58; type: cell-based; details: Pseudomonas aeruginosa; P. aeruginosa LESB58 clinical isolate, colistin-resistant, 37° C., 18 h
Experimental: as §1, §2, §3, §4

[3] = molecular target: T1, recombinant LpxA enzyme (P. aeruginosa) (Pseudomonas aeruginosa, UniProt Q9X6P4); test: LpxA in vitro substrate acylation assay with RapidFire MS analysis (P. aeruginosa); type: biochemical; details: P. aeruginosa enzyme 0.5 nM, PaACP-C10, 30 min
T1 sequence (Q9X6P4 1-258): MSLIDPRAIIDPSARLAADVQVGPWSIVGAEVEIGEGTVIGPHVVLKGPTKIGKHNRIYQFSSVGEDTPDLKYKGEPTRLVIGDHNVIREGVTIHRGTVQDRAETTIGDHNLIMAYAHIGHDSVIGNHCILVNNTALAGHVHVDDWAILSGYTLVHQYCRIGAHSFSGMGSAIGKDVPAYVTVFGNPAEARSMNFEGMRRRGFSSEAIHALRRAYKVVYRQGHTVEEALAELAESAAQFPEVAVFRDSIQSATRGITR
Experimental: Exemplary compounds from the above Examples were tested for ability to inhibit LpxA activity using an in vitro substrate acylation assay with RapidFire™ MS analysis. Assay procedures and results are described below.
Reactions were carried out in a final volume of 30 μL with 25 mM HEPES (pH 7.3), 150 mM NaCl, 2 mM DTT, 0.01% BSA, 5 μM UDP-GlcNac, recombinant LpxA enzyme (0.5 nM P. aeruginosa or 1.0 nM E. coli, both produced at Evotec), 0.5 μM acyl-transfer reagent (decanoyl P. aeruginosa acyl-carrier protein [PaACP-C10] or myristoyl E. coli acyl-carrier protein [EcACP-C1-4], both produced at Evotec), and 1% DMSO containing test compound. After 30 min incubation at room temperature, reactions were stopped by addition of 30 μL of 10% TCA in water.
Samples were centrifuged (4350 rpm, 4° C., 5 min), and then subjected to RapidFire™ MS analysis on an Agilent RapidFire 300 coupled to an Agilent 6460 triple-quadrupole mass spectrometer. Analytes were retained on a C4 (type A) cartridge using the following solvents and flow rates: • Pump 1—H2O with 5 mM NH4OAc at 2.0 mL/min, • Pump 2—MeOH/H2O (90/10) at 1.5 mL/min, • Pump 3—MeOH/H2O (90/10) at 0.5 mL/min, and • Pump 4—ACN (organic)/H2O (aqueous). Substrate and product of the reaction were detected in negative mode ESI-MS/MS by MRM (multiple reaction monitoring) of transitions 606.0/385.0 (UDP-GlcNAc substrate) and 776.2/385.0 (UDP-3-O—(R-3-hydroxydecanoyl)-GlcNAc product, for P. aeruginosa LpxA assay) or 832.2/385.0 (UDP-3-O—(R-3-hydroxymyristoyl)-GlcNAc product, for E. coli LpxA assay).
For IC50 determinations, peak areas of the substrate and product were compared to compute the proportion of product formed by the LpxA enzyme at each compound concentration.

| SMILES | MIC [1] [µg/mL] | MIC [2] [µg/mL] | MIC (P. aeruginosa PAO397) [µg/mL] | MIC (P. aeruginosa LESB58) [µg/mL] | IC50 [3] [nM] |
| --- | --- | --- | --- | --- | --- |
| CCc1ccccc1SCC(=O)N(Cc1ccc(C#N)cc1)Cc1nnc(N)o1 [Compound No. 10] | > 64 | 1 to 16 (≈ 2.45 to 39.3 µM) | < 1 |  |  |
| N#Cc1ccc(CN(Cc2nnc(N)o2)C(=O)COc2cc(F)cc(F)c2Cl)cn1 [Compound No. 18, N-((5-amino-1,3,4-oxadiazol-2-yl)methyl)-2-(2-chloro-3,5-difluorophenoxy)-N-((6-cyanopyridin-3-yl)methyl)acetamide] | > 64 | 1 to 16 (≈ 2.3 to 36.8 µM) | 1 to 16 (≈ 2.3 to 36.8 µM) | > 64 |  |
| Cc1nnc(CN(Cc2ccc(C#N)cc2)C(=O)CSc2ccccc2Cl)o1 [Compound No. 65, 2-(2-Chlorophenyl)sulfanyl-N-[(4-cyanophenyl)methyl]-N-[(5-methyl-1,3,4-oxadiazol-2-yl)methyl]acetamide] | > 64 | > 64 | 1 to 16 (≈ 2.42 to 38.8 µM) |  |  |
| N#Cc1ccc(CN(Cc2nnc(O)o2)C(=O)CSc2ccccc2Cl)cc1 [Compound No. 66, 2-(2-Chlorophenyl)sulfanyl-N-[(4-cyanophenyl)methyl]-N-[(5-hydroxy-1,3,4-oxadiazol-2-yl)methyl]acetamide] | > 64 | 1 to 16 (≈ 2.41 to 38.6 µM) | < 1 |  |  |
| N#Cc1ccc(CN(Cc2nnc(CN)o2)C(=O)CSc2ccccc2Cl)cc1 [Compound No. 67, N-[[5-(Aminomethyl)-1,3,4-oxadiazol-2-yl]methyl]-2-(2-chlorophenyl)sulfanyl-N-[(4-cyanophenyl)methyl]acetamide] | > 64 | 16 to 64 (≈ 37.4 to 150 µM) | 1 to 16 (≈ 2.34 to 37.4 µM) |  |  |
| N#Cc1ccc(CN(Cc2nnc(N)s2)C(=O)CSc2ccccc2Cl)cc1 [Compound No. 69, N-[(5-Amino-1,3,4-thiadiazol-2-yl)methyl]-2-(2-chlorophenyl)sulfanyl-N-[(4-cyanophenyl)methyl]acetamide] | > 64 | 1 to 16 (≈ 2.33 to 37.2 µM) | 1 to 16 (≈ 2.33 to 37.2 µM) |  |  |
| N#Cc1ccc(CN(Cc2nnc(N)o2)C(=O)CSc2ncccc2Cl)cn1 [compound 12] | > 64 | 1 to 16 (≈ 2.4 to 38.5 µM) | < 1 |  |  |
| Nc1nnc(CN(Cc2ccc(=O)[nH]c2)C(=O)CSc2ccccc2Cl)o1 [compound 29] | > 64 | > 64 | 1 to 16 (≈ 2.46 to 39.4 µM) |  |  |
| CCc1ccccc1OCC(=O)N(Cc1ccc(C#N)cc1)Cc1nnc(N)o1 [compound 32] | > 64 | 1 to 16 (≈ 2.55 to 40.9 µM) | < 1 |  |  |
| N#Cc1ccc(CN(Cc2nnc(N)o2)C(=O)COc2cccc(Cl)c2Cl)c(F)c1 [compound 34] | > 64 | 16 to 64 (≈ 35.5 to 142 µM) | < 1 |  |  |
| N#Cc1ccc(CN(Cc2c[nH]cn2)C(=O)CSc2ccccc2Cl)cc1 [compound 43] | > 64 | > 64 | 1 to 16 (≈ 2.52 to 40.3 µM) |  |  |
| Nc1nnc(CN(Cc2ccc(S(N)(=O)=O)cc2)C(=O)CSc2ccccc2Cl)o1 [compound 47] | > 64 | 16 to 64 (≈ 34.2 to 137 µM) | < 1 |  |  |
| Cc1cnc(CN(Cc2ccc(C#N)cc2)C(=O)CSc2ccccc2Cl)o1 [compound 72] | > 64 |  | 1 to 16 (≈ 2.43 to 38.8 µM) |  | 100 to 1000 |
| [2H]C([2H])(Oc1cc(F)cc(F)c1C([2H])([2H])C([2H])([2H])[2H])C(=O)N(Cc1nnc(N)o1)Cc1ccc([N+](=O)[O-])cc1F [compound 78] | 1 to 16 (≈ 2.12 to 33.9 µM) |  |  | 1 to 16 (≈ 2.12 to 33.9 µM) | < 20 |
| CCc1c(F)cc(F)cc1OCC(=O)N(Cc1ccc2c(c1)CC(=O)N2)Cc1nnc(N)o1 [compound 83] | > 64 |  |  | 16 to 64 (≈ 35 to 140 µM) | < 20 |
| Nc1nnc(CN(Cc2ccc([N+](=O)[O-])cc2)C(=O)COc2cc(F)cc(F)c2C2CC2)o1 [compound 84] | 16 to 64 (≈ 34.8 to 139 µM) |  |  | 1 to 16 (≈ 2.18 to 34.8 µM) | < 20 |
| Nc1nnc(CN(Cc2ccc([N+](=O)[O-])cc2F)C(=O)COc2cc(F)cc(F)c2C2CC2)o1 [compound 86] | 16 to 64 (≈ 33.5 to 134 µM) |  |  | 1 to 16 (≈ 2.09 to 33.5 µM) | < 20 |
| Nc1nnc(CN(Cc2ccc([N+](=O)[O-])nc2)C(=O)COc2cc(F)cc(F)c2C2CC2)o1 [compound 87] | > 64 |  |  | > 64 | 20 to 100 |
| [2H]C([2H])(Oc1ccccc1C([2H])([2H])C([2H])([2H])[2H])C(=O)N(Cc1ccc(C#N)nc1)Cc1nnc(N)o1 [compound 88] | > 64 |  |  | > 64 | 20 to 100 |
| Nc1nnc(CN(Cc2csc([N+](=O)[O-])c2)C(=O)COc2cc(F)cc(F)c2C2CC2)o1 [compound 89] | > 64 |  |  | > 64 | 20 to 100 |
| [2H]C([2H])(Oc1ccccc1C([2H])([2H])C([2H])([2H])[2H])C(=O)N(Cc1nnc(N)o1)Cc1ccc([N+](=O)[O-])cc1F [compound 92] | > 64 |  |  | 16 to 64 (≈ 36.7 to 147 µM) | 20 to 100 |
| [2H]C([2H])(Oc1ccccc1C([2H])([2H])C([2H])([2H])[2H])C(=O)N(Cc1ccc([N+](=O)[O-])cc1)Cc1nnc(N)o1 [compound 93] | > 64 |  |  | > 64 | 20 to 100 |
| CCc1c(F)cc(F)cc1OCC(=O)N(Cc1ccc([N+](=O)[O-])cc1)Cc1nnc(N)o1 [compound 95] | 16 to 64 (≈ 35.8 to 143 µM) |  |  | 1 to 16 (≈ 2.24 to 35.8 µM) | < 20 |
| N#Cc1ccc(CN(Cc2nnc(N)o2)C(=O)COc2cc(F)cc(F)c2Br)c(F)c1 [compound 96] | 16 to 64 (≈ 32.2 to 129 µM) |  |  | 1 to 16 (≈ 2.02 to 32.2 µM) | < 20 |
| N#Cc1ccc(CN(Cc2nnc(N)o2)C(=O)c2cc3cccc(Cl)c3s2)c(F)c1 [compound 97] | > 64 |  |  | > 64 | > 1000 |
| N#Cc1ccc(CN(CC(=O)N2CCOC[C@@H]2CN)C(=O)CSc2cc(F)cc(F)c2Cl)c(F)c1 [compound 106] | > 64 |  |  | > 64 | > 1000 |
| N#Cc1ccc(CN(CC(=O)N[C@@H](CN)C(=O)O)C(=O)CSc2cc(F)cc(F)c2Cl)c(F)c1 [compound 107] | > 64 |  |  | > 64 | 100 to 1000 |
| CCc1cccc(OCC(=O)N(Cc2nnc(N)o2)Cc2ccc(C#N)cc2F)c1 [compound 110] | > 64 |  |  | > 64 | 100 to 1000 |
| N#Cc1ccc(CN(Cc2nnc(O)o2)C(=O)CSc2cc(OCCN)ccc2Cl)c(F)c1 [compound 116] | > 64 |  |  | > 64 | > 1000 |
